The nature of series [1]: Solubility in tetrahydrofuran-d8 by proton NMR of saturated solutions. It is filed as physicochemical. On the procedure: The solubility of each compound prepared in Examples 1 to 4 was determined by the following method. The proton NMR spectra of saturated solutions of the compounds prepared in Examples 1 to 4 dissolved in tetrahydrofuran-d8 were compared with the proton NMR spectrum of a standard solution (i.e., known concentration) of the compound of Example 2, which was 2-hexyl-5-[ 13-(5-hexylthien-2-yl)pentacene-6-yl]thiophene, dissolved in tetrahydrofuran-d8. The same lot of tetrahydrofuran-d8 was used to make all of the solutions. The standard solution was prepared by dissolving 7.0 mg of the compound of Example 2 in 936 mg of tetrahydrofuran-d8 to give a 0.742 weight percent solution. Saturated solutions of the compounds of Examples 1 to 4 were prepared by placing an excess of the corresponding compound in approximately 1 mL of tetrahydrofuran-d8 and mixing for 30 minutes. The solutions were filtered and placed in an NMR tube and the corresponding proton NMR spectra were obtained.
For the standard (0.742 weight percent solution of the compound of Example 2), the NMR integration for the absorption at 8.59 ppm (the most down-field absorption corresponding to the four protons at positions 5, 7, 12 and 14) was compared to the absorption of the residual protio-tetrahydrofuran at 3.6 ppm to give a relative ratio of moles of the compound of Example 2 to moles of protio-tetrahydrofuran of 0.33. The molar ratio of the compound of Example 2 to tetrahydrofuran (protio- and deutero-) in the standard solution is 8.83×10^−4. This molar ratio (8.83×10^−4) divided by the relative ratio of moles of the compound of Example 2 to moles of protio-tetrahydrofuran (0.33) gave a factor of 2.68×10^−3. Multiplying this factor by the proton NMR integration for the saturated solutions of the corresponding compounds of Example 1 to 4 gave the ratio of moles of pentacene derivative to moles of tetrahydrofuran in the saturated solutions. This allowed the calculation of the concentrations for the various solutions of compounds of Examples 1 to 4 as shown in the table below.

Series [2] in a line: Stability in tetrahydrofuran (endoperoxide formation by proton NMR). The conditions noted are these: for Mole percent impurity—120 hours: endoperoxide in tetrahydrofuran-d8 after 120 hours, protected from light; for Mole percent impurity—120 hours / Mole percent increase: room temperature; for Mole percent impurity—initial: endoperoxide in tetrahydrofuran-d8 solution; for Mole percent increase: increase of endoperoxide over 120 hours in tetrahydrofuran-d8, protected from light. In kind it is physicochemical. On the procedure: The solution stabilities of the compounds of Examples 1 to 4 were determined by proton NMR analysis of saturated solutions of the corresponding compounds in tetrahydrofuran-d8. Comparing the proton NMR integration of the four protons at positions 5, 7, 12 and 14 (8.51 ppm to 8.69 ppm) to the integration of the four corresponding protons from the endoperoxide (the major and only detectable decomposition product, 7.93 ppm to 7.98 ppm), the percent increase of this impurity was determined for each compound. The solutions were prepared by dissolving the corresponding compound in tetrahydrofuran-d8 and the proton NMR spectra were obtained to determine the initial concentration of endoperoxide for each sample. The solutions were allowed to stand protected from light at room temperature (i.e., 20° C. to 25° C.) for 120 hours. Proton NMR spectra of the aged samples were taken and the increase in absorption of the endoperoxide was used to calculate the data shown in Table 3. The formation of the endoperoxide is shown in the following reaction for compounds of Formula II.

The conditions of series [3]: small quantity extracted into refluxing 1,2-dichlorobenzene; cited from earlier work.
For series [4] the following is noted: isolation and purification; cited from earlier work.
Where [5] appears, read: saturated solution in tetrahydrofuran-d8, mixed 30 minutes, filtered.

Like-named read-outs stand apart in the source and are kept apart here.

Regarding `c1csc(-c2c3cc4ccccc4cc3c(-c3cccs3)c3cc4ccccc4cc23)c1` [Example 1, 2-(13-thien-2-ylpentacene-6-yl)thiophene], in series [1] (setting [5]), the “Molarity in THF” value is given as 6.58 × 10^−3, the “Moles of compound/moles of THF” value is 5.35 × 10^−4 and the “Weight percent in THF” value was 0.327 weight percent. Further, in series [2], the “Mole percent impurity—120 hours” value was 21.26 mole percent, the “Mole percent impurity—initial” value is on record as 5.66 mole percent and the Mole percent increase is recorded as 15.60 mole percent.
As to `c1csc(-c2ccc(-c3c4cc5ccccc5cc4c(-c4ccc(-c5cccs5)s4)c4cc5ccccc5cc34)s2)c1` [Example 4, 5-[13-(2,2′-bithien-5-yl)pentacen-6-yl]-2,2′-bithiophene], in series [1], the “Molarity in THF” value was 1.98 × 10^−3 and the “Moles of compound/moles of THF” value was 1.61 × 10^−4. The “Weight percent in THF” value in series [1] (setting [5]) turned out to be 0.135 weight percent. Besides, in series [2], the “Mole percent impurity—120 hours” value stood at 6.54 mole percent, the “Mole percent impurity—initial” value is on record as 2.91 mole percent and the Mole percent increase is recorded as 3.63 mole percent.
Consider `c1ccc2cc3cc4cc5ccccc5cc4cc3cc2c1` [pentacene], for which the time to bleaching result in series [3] is reported as “less than 5 minutes”.
Regarding `C[Si](C)(C)c1cc2cc3cc4cc5cc([Si](C)(C)C)c([Si](C)(C)C)cc5cc4cc3cc2cc1[Si](C)(C)C` [2,3,9,10-tetrakis(trimethylsilyl)pentacene], in series [4], the “air and light sensitivity” value was “highly air- and light-sensitive”.
As to `CCCCCCc1ccc(-c2c3cc4ccccc4cc3c(-c3ccc(CCCCCC)s3)c3cc4ccccc4cc23)s1` [Example 2, 2-hexyl-5-[13-(5-hexylthien-2-yl)pentacene-6-yl]thiophene], in series [1] (setting [5]), the “Molarity in THF” value was 1.22 × 10^−1, the “Moles of compound/moles of THF” value is recorded as 1.08 × 10^−2 and the “Weight percent in THF” value is reported as 8.35 weight percent. In addition, in series [2], the “Mole percent impurity—120 hours” value is listed as 10.71 mole percent, the “Mole percent impurity—initial” value stood at 2.91 mole percent and the Mole percent increase turned out to be 7.80 mole percent.
For the compound `C[Si](C)(C)c1ccc(-c2c3cc4ccccc4cc3c(-c3ccc([Si](C)(C)C)s3)c3cc4ccccc4cc23)s1` [Example 3, trimethyl(5-{13-[5-(trimethylsilyl)thien-2-yl]pentacen-6-yl}thien-2-yl)silane], in series [1] (setting [5]), the “Molarity in THF” value is 3.54 × 10^−2, the “Moles of compound/moles of THF” value is recorded as 2.94 × 10^−3 and the “Weight percent in THF” value is reported as 2.34 weight percent. Also, in series [2], the “Mole percent impurity—120 hours” value is reported as 4.76 mole percent, the “Mole percent impurity—initial” value was found to be 1.96 mole percent and the Mole percent increase turned out to be 2.80 mole percent.

(Values after patent US7319153B2, “6,13-Bis(thienyl)pentacene compounds” (3M Innovative Properties Company, priority 2005, dated 2008).)
